Laboratory results taken from patent publication US20180125834A1, “METHODS OF TREATING BACTERIAL INFECTIONS AND FUNGAL INFECTIONS USING ENANTIOPURE DEUTERIUM-ENRICHED PIOGLITAZONE” (DeuteRx, LLC, priority 2015, published 2018).

Columns and labels:
C2C12 cells = details: 30 μM for 15, 30, or 90 min; 10 mM sodium pyruvate
Experimental: On the day before the assay, C2C12 cells were subcultured in XF96 microplates at a density of 20,000 cells per well. After overnight incubation (37° C., 5% CO2), the cells were washed 3 times with assay medium (Seahorse medium (Seahorse Bioscience, North Billerica, Mass.) containing 10 mM sodium pyruvate, pH 7.4). […] Incubation times of 15, 30, or 90 min were used prior to measurement of maximal respiration, i.e., until addition of FCCP. […] Maximal respiration as oxygen consumption rates (pmoles O2/min) was measured for each compound, at each concentration, and each time point in three separate experiments.

[1] = molecular target: T1, human recombinant monoamine oxidase B (Homo sapiens, UniProt P27338); assay: Monoamine oxidase B (MAO-B) inhibition, luminescence assay; type: biochemical
T1 sequence (P27338 1-520): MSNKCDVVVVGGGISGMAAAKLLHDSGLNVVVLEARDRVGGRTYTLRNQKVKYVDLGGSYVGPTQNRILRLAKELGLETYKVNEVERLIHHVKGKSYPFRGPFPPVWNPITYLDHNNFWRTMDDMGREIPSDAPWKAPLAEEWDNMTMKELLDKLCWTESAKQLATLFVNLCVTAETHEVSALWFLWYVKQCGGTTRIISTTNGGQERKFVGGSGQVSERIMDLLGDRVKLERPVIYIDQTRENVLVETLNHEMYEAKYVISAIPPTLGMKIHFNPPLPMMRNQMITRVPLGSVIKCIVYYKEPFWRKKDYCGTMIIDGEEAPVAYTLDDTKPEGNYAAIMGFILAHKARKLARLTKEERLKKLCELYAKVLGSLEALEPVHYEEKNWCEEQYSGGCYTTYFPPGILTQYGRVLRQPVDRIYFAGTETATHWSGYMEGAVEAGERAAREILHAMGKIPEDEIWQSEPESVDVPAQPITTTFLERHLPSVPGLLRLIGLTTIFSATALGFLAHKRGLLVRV
Experimental: The mixtures were incubated at 22° C. for 5 min. Substrate (D-luciferin derivative) was added, and then the mixture was incubated at 37° C. for 60 min. The reaction was stopped by addition of the detection reagent containing luciferase. Luminescence was read after standing for 60 min at room temperature.
Results were expressed as a percentage of the luminescence of the control (enzyme+substrate). IC50 values were obtained by fitting experimental data (mean % luminescence as function of concentration) to the Hill equation with variable slope using non-linear regression analysis.

[2] = In vitro stability (enantiomerization, D/H exchange) in C57BL/6 mouse plasma at 37° C.; type: in vitro ADME; details: up to 32 h
Experimental: (§1) The plasma samples were incubated at 37° C. in duplicate (anticoagulant: K3EDTA). […] Samples were placed at −80° C. until the study was complete. […] The vortexed samples were centrifuged and 50 μL of supernatant was dispensed in a 96-well plate.
(§2) The deuterium in both enantiomers, d-S and d-R, can be lost by D/H exchange to give both protonated enantiomers, h-S and h-R with rate constants kDRR, kDRS, kDSR, and kDSS. At the same time, the protonated enantiomers h-S and h-R can exchange with enantiomerization rate constants kRS and kSR. All four compounds can also degrade with potentially different degradation rate constants kdSd, kdRd, khSd, and khRd.
(§3) Human and mouse plasma data were analyzed independently. […] Data in each species was analyzed using a stepwise approach.
(§4) The step between calculated time points was minimized in order to minimize the local error (proportional to the square of the step size) and the global error (proportional to the step size).

[3] = In vitro stability (enantiomerization, D/H exchange) in human plasma at 37° C.; type: in vitro ADME; details: up to 32 h
Experimental: as §1, §2, §3, §4

[4] = In vitro plasma stability, half-life of deuterated vs. protonated enantiomers (plasma species not given); type: in vitro ADME; details: 37° C., t1/2=ln(2)/k from fitted rate constants
Experimental: as §1, §2, §3, §4

Row | Compound | maximal respiration as oxygen consumption rate (OCR) vs. vehicle-treated cells (C2C12 cells) | difference in inhibition efficacy between d-R-pio and d-S-pio [1] | degradation (sum of peak areas vs. incubation time) [2] | degradation (sum of peak areas vs. incubation time) [3] | half-life of deuterated enantiomer vs. corresponding protonated enantiomer [4]
1 | CCc1ccc(CCOc2ccc(CC3SC(=O)NC3=O)cc2)nc1 (racemic) [h-rac-pio, rac-5-({p-[2-(5-Ethyl-2-pyridyl)ethoxy]phenyl}methyl)-1,3-thiazolidine-2,4-dione, reference compound] | inhibited maximal respiration |  |  |  | 
2 | [2H][C@]1(Cc2ccc(OCCc3ccc(CC)cn3)cc2)SC(=O)NC1=O [d-R-pio, (R)-5-({p-[2-(5-Ethyl-2-pyridyl)ethoxy]phenyl}methyl)-(5-^2H)-1,3-thiazolidine-2,4-dione] | inhibited maximal respiration | greater than 5 fold | negligible | negligible | approximately two-fold
3 | [2H][C@@]1(Cc2ccc(OCCc3ccc(CC)cn3)cc2)SC(=O)NC1=O [d-S-pio, (S)-5-({p-[2-(5-Ethyl-2-pyridyl)ethoxy]phenyl}methyl)-(5-^2H)-1,3-thiazolidine-2,4-dione] | no significant measurable effect |  | negligible | negligible | approximately the same as the half-life for h-S-pio
4 | CCc1ccc(CCOc2ccc(C[C@H]3SC(=O)NC3=O)cc2)nc1 [h-R-pio, (R)-5-({p-[2-(5-ethyl-2-pyridyl)ethoxy]phenyl}methyl)-1,3-thiazolidine-2,4-dione, reference compound] |  |  | negligible | negligible | 
5 | CCc1ccc(CCOc2ccc(C[C@@H]3SC(=O)NC3=O)cc2)nc1 [h-S-pio, (S)-5-({p-[2-(5-ethyl-2-pyridyl)ethoxy]phenyl}methyl)-1,3-thiazolidine-2,4-dione, reference compound] |  |  | negligible | negligible | 
